Experimental data as given in patent US10358434B2, “2-(3-pyridinyl)-1H-benzimidazole derivative compound and medicament containing same” (NIHON MEDI-PHYSICS CO., LTD., priority 2014, dated 2019).

Assays:
[1] = Plasma stability evaluation (TLC analysis); assay type: in vitro ADME; details: 37° C., 60 minutes
Protocol: Evaluation was made using a heparin-treated normal human plasma pool (Kohjin Bio Co., Ltd.). Compounds [^18F] 100, [^18F] 200, [^123I] 400, [^18F] 500, and [^123I] 601 to 610 obtained by the methods shown in Examples 2, 4, 7, 9, 11, 13, 15, 17, 19, 21, 23, 25, 27, and 29 were each added to the aforementioned human plasma (5 mL), and the obtained mixture was then incubated at 37° C. for 60 minutes. Thereafter, the mixture was centrifuged with addition of methanol, so that a deproteinization treatment was carried out. Thereafter, stability was evaluated by TLC analysis. As TLC analysis conditions, the TLC analysis conditions applied upon the above described synthesis of each compound were applied.

[2] = system: human adrenal gland section expressing aldosterone-producing adenoma; test: In vitro autoradiography using human adrenal adenoma; assay type: binding
Procedure, shortened: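 Frozen 7-μm sections of human adrenal bearing aldosterone-producing adenoma were immersed 10 min in radioligand (5-33 kBq/mL) in PBS with 1% fatty-acid-free BSA, washed, then exposed to imaging plates for 16-20 h. Equal-area ROI PSL in adenoma (B2) versus normal cortex (B1) gave B2/B1, corrected for nuclide half-life, added activity and exposure time.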

[3] = In vivo kinetics experiment (radioactivity distribution); parameters: species or system Wistar male rat; details: rat; for Adrenal gland/blood ratio of radioactivity accumulation / Adrenal gland/fat ratio of radioactivity accumulation / Adrenal gland/kidney ratio of radioactivity accumulation / Adrenal gland/liver ratio of radioactivity accumulation / Adrenal gland/muscle ratio of radioactivity accumulation / Adrenal gland/small intestine ratio of radioactivity accumulation / Radioactivity distribution Adrenal gland / Radioactivity distribution Bladder (including urine) / Radioactivity distribution Blood / Radioactivity distribution Fat / Radioactivity distribution Heart / Radioactivity distribution Kidney / Radioactivity distribution Large intestine / Radioactivity distribution Liver / Radioactivity distribution Lung / Radioactivity distribution Muscle (lower limbs) / Radioactivity distribution Remaining whole body / Radioactivity distribution Small intestine / Radioactivity distribution Spleen / Radioactivity distribution Stomach / Radioactivity distribution Testis / Radioactivity distribution Thyroid gland / Radioactivity distribution Whole brain: caudal vein
Procedure, shortened: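 Male Wistar rats (9 weeks) under isoflurane received approximately 1 to 3.7 MBq radiotracer in saline with 1 w/v % ascorbic acid by tail-vein injection. At 10, 30 and 60 min, rats were exsanguinated; blood, organs and remaining body weighed and counted, giving % ID/g and adrenal-to-tissue ratios.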

FCCn1c(-c2cncc(Cn3ccnc3)c2)nc2cc(F)c([123I])cc21 [[^123I] 400, 5-Fluoro-1-(2-fluoroethyl)-2-[5-(imidazol-1-ylmethyl)pyridin-3-yl]-6-[^123I]iodobenzimidazole]
stability in human plasma [1]: hardly metabolized and decomposed in the plasma
Radiochemical purity after incubation in human plasma ([1]; TLC analysis): 88%
accumulation of radioactivity in adrenal gland section (autoradiogram) ([2]; FIGS. 18 to 31): accumulation of radioactivity was selectively observed in a region in which aldosterone-producing adenoma had been pathologically observed
B2/B1 accumulation ratio ([2]; section of FIG. 17(a)): 2.89
B2 (PSL value, aldosterone-producing adenoma) ([2]; section of FIG. 17(a), site 71a): 4611
B1 (PSL value, normal adrenal cortex) ([2]; section of FIG. 17(a), site 72a): 1596
accumulation of radioactivity in adrenal gland vs blood and peripheral tissues ([3]; Tables 9 to 22): high accumulation of radioactivity in adrenal gland was observed, in comparison to in blood and peripheral tissues
Adrenal gland/blood ratio of radioactivity accumulation ([3]; 10 min after administration): 28.34
Adrenal gland/fat ratio of radioactivity accumulation ([3]; 10 min after administration): 89.23
Adrenal gland/kidney ratio of radioactivity accumulation ([3]; 10 min after administration): 5.85
Adrenal gland/liver ratio of radioactivity accumulation ([3]; 10 min after administration): 3.02
Adrenal gland/muscle ratio of radioactivity accumulation ([3]; 10 min after administration): 54.21
Adrenal gland/small intestine ratio of radioactivity accumulation ([3]; 10 min after administration): 6.95
Radioactivity distribution Adrenal gland ([3]; 10 min after administration): 9.09 % ID/g
Radioactivity distribution Bladder (including urine) ([3]; 10 min after administration): 0.32 % ID/g
Radioactivity distribution Blood ([3]; 10 min after administration): 0.32 % ID/g
Radioactivity distribution Fat ([3]; 10 min after administration): 0.10 % ID/g
Radioactivity distribution Heart ([3]; 10 min after administration): 0.63 % ID/g
Radioactivity distribution Kidney ([3]; 10 min after administration): 1.54 % ID/g
Radioactivity distribution Large intestine ([3]; 10 min after administration): 0.19 % ID/g
Radioactivity distribution Liver ([3]; 10 min after administration): 2.98 % ID/g
Radioactivity distribution Lung ([3]; 10 min after administration): 1.06 % ID/g
Radioactivity distribution Muscle (lower limbs) ([3]; 10 min after administration): 0.17 % ID/g
Radioactivity distribution Remaining whole body ([3]; 10 min after administration): 0.27 % ID/g
Radioactivity distribution Small intestine ([3]; 10 min after administration): 1.30 % ID/g
Radioactivity distribution Spleen ([3]; 10 min after administration): 5.26 % ID/g
Radioactivity distribution Stomach ([3]; 10 min after administration): 1.03 % ID/g
Radioactivity distribution Testis ([3]; 10 min after administration): 0.07 % ID/g
Radioactivity distribution Thyroid gland ([3]; 10 min after administration): 3.54 % ID/g
Radioactivity distribution Whole brain ([3]; 10 min after administration): 0.02 % ID/g
Adrenal gland/blood ratio of radioactivity accumulation ([3]; 30 min after administration): 40.26
Adrenal gland/fat ratio of radioactivity accumulation ([3]; 30 min after administration): 147.73
Adrenal gland/kidney ratio of radioactivity accumulation ([3]; 30 min after administration): 17.90
Adrenal gland/liver ratio of radioactivity accumulation ([3]; 30 min after administration): 13.82
Adrenal gland/muscle ratio of radioactivity accumulation ([3]; 30 min after administration): 110.91
Adrenal gland/small intestine ratio of radioactivity accumulation ([3]; 30 min after administration): 9.24
Radioactivity distribution Adrenal gland ([3]; 30 min after administration): 16.93 % ID/g
Radioactivity distribution Bladder (including urine) ([3]; 30 min after administration): 1.35 % ID/g
Radioactivity distribution Blood ([3]; 30 min after administration): 0.43 % ID/g
Radioactivity distribution Fat ([3]; 30 min after administration): 0.12 % ID/g
Radioactivity distribution Heart ([3]; 30 min after administration): 0.49 % ID/g
Radioactivity distribution Kidney ([3]; 30 min after administration): 0.95 % ID/g
Radioactivity distribution Large intestine ([3]; 30 min after administration): 0.19 % ID/g
Radioactivity distribution Liver ([3]; 30 min after administration): 1.24 % ID/g
Radioactivity distribution Lung ([3]; 30 min after administration): 0.76 % ID/g
Radioactivity distribution Muscle (lower limbs) ([3]; 30 min after administration): 0.15 % ID/g
Radioactivity distribution Remaining whole body ([3]; 30 min after administration): 0.31 % ID/g
Radioactivity distribution Small intestine ([3]; 30 min after administration): 1.83 % ID/g
Radioactivity distribution Spleen ([3]; 30 min after administration): 5.44 % ID/g
Radioactivity distribution Stomach ([3]; 30 min after administration): 2.24 % ID/g
Radioactivity distribution Testis ([3]; 30 min after administration): 0.12 % ID/g
Radioactivity distribution Thyroid gland ([3]; 30 min after administration): 9.97 % ID/g
Radioactivity distribution Whole brain ([3]; 30 min after administration): 0.02 % ID/g
Adrenal gland/blood ratio of radioactivity accumulation ([3]; 60 min after administration): 29.41 ± 3.13
Adrenal gland/fat ratio of radioactivity accumulation ([3]; 60 min after administration): 105.17 ± 28.98
Adrenal gland/kidney ratio of radioactivity accumulation ([3]; 60 min after administration): 18.87 ± 3.12
Adrenal gland/liver ratio of radioactivity accumulation ([3]; 60 min after administration): 16.66 ± 3.13
Adrenal gland/muscle ratio of radioactivity accumulation ([3]; 60 min after administration): 95.38 ± 22.07
Adrenal gland/small intestine ratio of radioactivity accumulation ([3]; 60 min after administration): 6.64 ± 2.31
Radioactivity distribution Adrenal gland ([3]; 60 min after administration): 11.65 ± 1.54 % ID/g
Radioactivity distribution Bladder (including urine) ([3]; 60 min after administration): 1.27 ± 0.07 % ID/g
Radioactivity distribution Blood ([3]; 60 min after administration): 0.40 ± 0.01 % ID/g
Radioactivity distribution Fat ([3]; 60 min after administration): 0.11 ± 0.02 % ID/g
Radioactivity distribution Heart ([3]; 60 min after administration): 0.35 ± 0.03 % ID/g
Radioactivity distribution Kidney ([3]; 60 min after administration): 0.62 ± 0.08 % ID/g
Radioactivity distribution Large intestine ([3]; 60 min after administration): 0.43 ± 0.19 % ID/g
Radioactivity distribution Liver ([3]; 60 min after administration): 0.70 ± 0.05 % ID/g
Radioactivity distribution Lung ([3]; 60 min after administration): 0.60 ± 0.03 % ID/g
Radioactivity distribution Muscle (lower limbs) ([3]; 60 min after administration): 0.12 ± 0.02 % ID/g
Radioactivity distribution Remaining whole body ([3]; 60 min after administration): 0.33 ± 0.02 % ID/g
Radioactivity distribution Small intestine ([3]; 60 min after administration): 1.85 ± 0.44 % ID/g
Radioactivity distribution Spleen ([3]; 60 min after administration): 5.27 ± 0.89 % ID/g
Radioactivity distribution Stomach ([3]; 60 min after administration): 4.35 ± 0.25 % ID/g
Radioactivity distribution Testis ([3]; 60 min after administration): 0.15 ± 0.01 % ID/g
Radioactivity distribution Thyroid gland ([3]; 60 min after administration): 19.76 ± 1.03 % ID/g
Radioactivity distribution Whole brain ([3]; 60 min after administration): 0.02 ± 0.00 % ID/g
